In the oligonucleotide strings, read from the 5' end, every base follows the letter of its sugar. An asterisk marks phosphorothioate; unmarked linkages are phosphodiester. Other units and linkages are bracketed, terminal groups are in braces. A string of capitals states the bases alone. d = 2'-deoxy (DNA); m = 2'-O-methyl
molecular target: cGAS (Homo sapiens, UniProt Q8N884); assay: ISD70-driven IP-10 (and IFN-β) production in THP-1 cells, ELISA; assay type: cell-based; design: endogenous in cells; host or cells: THP-1 (undifferentiated); details: THP-1; 100 nM ASO overnight, then ISD70 2.5 μg/ml 7-8 h; percentage of ISD70 only
Sequence (Q8N884 whole entry): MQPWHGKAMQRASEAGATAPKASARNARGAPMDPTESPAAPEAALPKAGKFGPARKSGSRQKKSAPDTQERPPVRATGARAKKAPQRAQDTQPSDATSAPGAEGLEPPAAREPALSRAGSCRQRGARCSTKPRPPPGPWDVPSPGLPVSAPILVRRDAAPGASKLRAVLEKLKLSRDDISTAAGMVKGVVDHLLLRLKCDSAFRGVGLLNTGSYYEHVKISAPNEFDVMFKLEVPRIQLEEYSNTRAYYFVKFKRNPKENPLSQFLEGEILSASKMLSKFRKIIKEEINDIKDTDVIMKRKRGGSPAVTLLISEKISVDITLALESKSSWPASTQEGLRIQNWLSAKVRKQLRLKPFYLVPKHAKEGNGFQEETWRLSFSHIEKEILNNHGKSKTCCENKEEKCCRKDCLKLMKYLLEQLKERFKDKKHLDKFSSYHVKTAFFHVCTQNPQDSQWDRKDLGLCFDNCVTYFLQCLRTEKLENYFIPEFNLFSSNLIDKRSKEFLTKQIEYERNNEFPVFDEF

In order of rising “cGAS-100 nM: averaged IP-10 levels relative to ISD70” value:
1. mG*mA*mU*mG*mG*T*T*C*C*A*G*T*C*C*C*mU*mC*mU*mU*mC (GAUGGTTCCAGTCCCUCUUC; antisense; sugars from the 5' end m5 d10 m5, all phosphorothioate, methylation of C not given here) [[LINC-PINT]1497.1]  26.05%
2. mG*mC*mA*mA*mG*G*C*A*G*A*G*A*A*A*C*mU*mC*mC*mA*mG (GCAAGGCAGAGAAACUCCAG; sugars from the 5' end m5 d10 m5, all phosphorothioate, methylation of C not given here) [[LINC-PINT]1315 KL]  30.64%
3. mG*mG*mU*mC*mU*C*C*T*C*C*A*C*A*C*C*mC*mU*mU*mC*mU (mG*mG*mU*mC*mU*dC*dC*dT*dC*dC*dA*dC*dA*dC*dC*mC*mU*mU*mC*mU; antisense) [[LINC-PINT]127]  36.95%
4. mG*mG*mG*mU*mC*T*C*C*T*C*C*A*C*A*C*mC*mC*mU*mU*mC (GGGUCTCCTCCACACCCUUC; antisense; sugars from the 5' end m5 d10 m5, all phosphorothioate, methylation of C not given here) [[LINC-PINT]128]  37.83%
5. mU*mG*mA*mC*mA*T*T*T*C*G*T*G*G*C*T*mC*mC*mU*mA*mC (mU*mG*mA*mC*mA*dT*dT*dT*dC*dG*dT*dG*dG*dC*dT*mC*mC*mU*mA*mC; antisense) [[LINC-PINT]523 KL]  39.34%
6. mU*mG*mU*mG*mA*A*A*A*G*A*T*T*A*T*C*mU*mU*mC*mU*mU (UGUGAAAAGATTATCUUCUU; sugars from the 5' end m5 d10 m5, all phosphorothioate, methylation of C not given here) [[CDKN2B-AS1]2137]  40.72%
7. mG*mG*mU*mC*mC*C*A*T*C*C*C*T*T*C*T*mG*mC*mU*mG*mC (GGUCCCATCCCTTCTGCUGC; sugars from the 5' end m5 d10 m5, all phosphorothioate, methylation of C not given here) [[LINC-PINT]103]  45.23%
8. mG*mG*mU*mG*mG*C*C*A*C*A*G*G*C*A*A*mC*mG*mU*mC*mA (GGUGGCCACAGGCAACGUCA; antisense; sugars from the 5' end m5 d10 m5, all phosphorothioate, methylation of C not given here) [[CDKN2B-AS1]2196]  48.58%
9. mU*mC*mU*mG*mG*T*C*C*C*A*T*C*C*C*T*mU*mC*mU*mG*mC (UCUGGTCCCATCCCTUCUGC; antisense; sugars from the 5' end m5 d10 m5, all phosphorothioate, methylation of C not given here) [[LINC-PINT]106]  48.75%
10. mG*mG*mA*mU*mU*A*A*A*A*C*A*G*A*T*T*mA*mA*mU*mA*mC (GGAUUAAAACAGATTAAUAC; sugars from the 5' end m5 d10 m5, all phosphorothioate, methylation of C not given here) [[CDKN2B-AS1]1774]  50.11%
11. mG*mC*mG*mU*mA*G*T*T*T*C*T*C*T*T*C*mC*mU*mC*mC*mC (GCGUAGTTTCTCTTCCUCCC; sugars from the 5' end m5 d10 m5, all phosphorothioate, methylation of C not given here) [[LINC-PINT]935 KL]  50.62%
12. mG*mA*mA*mA*mA*G*A*T*T*A*T*C*T*T*C*mU*mU*mU*mU*mA (GAAAAGATTATCTTCUUUUA; sugars from the 5' end m5 d10 m5, all phosphorothioate, methylation of C not given here) [[CDKN2B-AS1]2134]  51.49%
13. mG*mU*mC*mA*mA*A*C*C*T*A*G*A*A*A*G*mA*mA*mG*mC*mA (mG*mU*mC*mA*mA*dA*dC*dC*dT*dA*dG*dA*dA*dA*dG*mA*mA*mG*mC*mA; antisense) [[CDKN2B-AS1]1528]  68.94%
14. mU*mG*mG*mC*mG*T*A*G*T*T*T*C*T*C*T*mU*mC*mC*mU*mC (mU*mG*mG*mC*mG*dT*dA*dG*dT*dT*dT*dC*dT*dC*dT*mU*mC*mC*mU*mC; antisense) [[LINC-PINT]937.1]  70.97%
15. mG*mU*mC*mC*mC*A*G*G*C*C*T*C*C*A*G*mU*mG*mU*mC*mU (mG*mU*mC*mC*mC*dA*dG*dG*dC*dC*dT*dC*dC*dA*dG*mU*mG*mU*mC*mU; antisense) [[CDKN2B-AS1]2223]  74.22%
16. mC*mU*mC*mU*mC*T*G*G*T*C*C*C*A*T*C*mC*mC*mU*mU*mC (mC*mU*mC*mU*mC*dT*dG*dG*dT*dC*dC*dC*dA*dT*dC*mC*mC*mU*mU*mC; antisense) [[LINC-PINT]109]  80.22%
17. mC*mU*mU*mC*mU*C*T*C*T*G*G*T*C*C*C*mA*mU*mC*mC*mC (mC*mU*mU*mC*mU*dC*dT*dC*dT*dG*dG*dT*dC*dC*dC*mA*mU*mC*mC*mC) [[LINC-PINT]112]  82.64%
18. mU*mG*mA*mU*mG*A*T*G*C*T*T*G*C*A*G*mG*mA*mG*mG*mC (mU*mG*mA*mU*mG*dA*dT*dG*dC*dT*dT*dG*dC*dA*dG*mG*mA*mG*mG*mC) [[LINC-PINT|283.1]  85.85%
19. mG*mU*mC*mC*mG*T*A*C*C*T*C*C*A*C*C*mC″mA*mC*mC*mG [[LINC-PINT]727.1]  86.09%
20. mU*mC*mC*mC*mA*T*C*C*C*T*T*C*T*G*C*mU*mG*mA*mC*mA (UCCCATCCCTTCTGCUGACA; sugars from the 5' end m5 d10 m5, all phosphorothioate, methylation of C not given here) [[LINC-PINT]101]  86.62%
21. mU*mG*mA*mC*mA*A*A*A*C*A*A*T*A*A*T*mA*mA*mC*mA*mG (mU*mG*mA*mC*mA*dA*dA*dA*dC*dA*dA*dT*dA*dA*dT*mA*mA*mC*mA*mG) [[LINC-PINT]384]  88.79%
22. mG*mA*mU*mU*mA*A*A*A*C*A*G*A*T*T*A*mA*mU*mA*mC*mA (mG*mA*mU*mU*mA*dA*dA*dA*dC*dA*dG*dA*dT*dT*dA*mA*mU*mA*mC*mA) [[CDKN2B-AS1]1773]  89.36%
23. mU*mC*mU*mC*mU*C*T*G*G*T*C*C*C*A*T*mC*mC*mC*mU*mU (mU*mC*mU*mC*mU*dC*dT*dG*dG*dT*dC*dC*dC*dA*dT*mC*mC*mC*mU*mU; antisense) [[LINC-PINT]110]  92.39%
24. mC*mU*mU*mU*mA*T*A*T*T*A*C*A*A*A*G*mC*mU*mA*mC*mU (mC*mU*mU*mU*mA*dT*dA*dT*dT*dA*dC*dA*dA*dA*dG*mC*mU*mA*mC*mU; antisense) [[LINC-PINT]2755]  92.54%
25. mG*mU*mU*mC*mA*G*T*C*A*G*A*T*C*G*C*mU*mG*mG*mG*mA (mG*mU*mU*mC*mA*dG*dT*dC*dA*dG*dA*dT*dC*dG*dC*mU*mG*mG*mG*mA) [[LINC-PINT]412 KL]  93.74%
26. mU*mC*mU*mC*mC*A*T*G*T*C*C*C*A*G*G*mC*mC*mU*mC*mC (mU*mC*mU*mC*mC*dA*dT*dG*dT*dC*dC*dC*dA*dG*dG*mC*mC*mU*mC*mC; antisense) [[CDKN2B-AS1]2230]  94.78%
27. mU*mC*mC*mC*mA*A*C*T*C*T*T*C*T*A*A*mC*mU*mC*mG*mU (mU*mC*mC*mC*mA*dA*dC*dT*dC*dT*dT*dC*dT*dA*dA*mC*mU*mC*mG*mU; antisense) [[LINC-PINT]1284 KL]  99.64%
28. mC*mC*mU*mU*mC*T*C*T*C*T*G*GT*C*C*mC*mA*mU*mC*mC (CCUUCTCTCTGGTCCCAUCC; antisense; chemistry not fully specified) [[LINC-PINT]113]  103.79%
29. mC*mC*mU*mU*mC*T*G*C*T*G*C*C*A*A*G*mC*mC*mC*mC*mA (mC*mC*mU*mU*mC*dT*dG*dC*dT*dG*dC*dC*dA*dA*dG*mC*mC*mC*mC*mA; antisense) [[LINC-PINT]94]  104.33%
30. mU*mC*mU*mC*mU*G*G*T*C*C*C*A*T*C*C*mC*mU*mU*mC*mU (UCUCUGGTCCCATCCCUUCU; antisense; sugars from the 5' end m5 d10 m5, all phosphorothioate, methylation of C not given here) [[LINC-PINT]108]  104.65%
31. mU*mA*mA*mA*mA*T*A*A*G*G*G*G*A*A*T*mA*mG*mG*mG*mG (mU*mA*mA*mA*mA*dT*dA*dA*dG*dG*dG*dG*dA*dA*dT*mA*mG*mG*mG*mG) [[CDKN2B-AS1]80]  110.58%
32. mG*mU*mC*mC*mC*A*T*C*C*C*T*T*C*T*G*mC*mU*mG*mC*mC (GUCCCATCCCTTCTGCUGCC; antisense; sugars from the 5' end m5 d10 m5, all phosphorothioate, methylation of C not given here) [[LINC-PINT]102]  113.87%
33. mG*mU*mC*mU*mC*C*T*C*C*A*C*A*C*C*C*mU*mU*mC*mU*mC (mG*mU*mC*mU*mC*dC*dT*dC*dC*dA*dC*dA*dC*dC*dC*mU*mU*mC*mU*mC; antisense) [[LINC-PINT]126]  114.36%

same assay, conditions: THP-1; 2′OMe or PS oligos, 100-250 nM, pre-treatment as in figure legends; ISD70 2.5 μg/ml

With “mG*mA*mU*mG*mG*T*T*C*C*A*G*T*C*C*C*mU*mC*mU*mU*mC (GAUGGTTCCAGTCCCUCUUC; antisense; sugars from the 5' end m5 d10 m5, all phosphorothioate, methylation of C not given here) [[LINC-PINT]1497.1]” the “inhibition of ISD70-driven IP-10 production (in words)” value was “significant effect”.
For “mG*mG*mU*mC*mC*C*A*T*C*C*C*T*T*C*T*mG*mC*mU*mG*mC (GGUCCCATCCCTTCTGCUGC; sugars from the 5' end m5 d10 m5, all phosphorothioate, methylation of C not given here) [[LINC-PINT]103]”, the “inhibition of ISD70-driven IP-10 production (in words)” value was “significantly inhibiting ISD70-driven IP-10 production”.

From patent publication US20240384268A1, “Oligonucleotides” (Hudson Institute of Medical Research, priority 2021, published 2024)
